Literature values in paper PMC4460250, “Systems Pharmacology Dissecting Holistic Medicine for Treatment of Complex Diseases: An Example Using Cardiocerebrovascular Diseases Treated by TCM” (Evidence-based Complementary and Alternative Medicine : eCAM, 2015).

Conditions: human; PreHIA data set, value given as fraction; cited from earlier work

SMILES	HIA(Human Intestinal Absorption)
Nc1ccc(S(=O)(=O)c2ccc(N)cc2)cc1 [Dapsone]	0.9

Same assay, conditions: in vivo; cited from earlier work

SMILES	HIA(Human Intestinal Absorption)
CNCCCN1c2ccccc2CCc2ccccc21 [Desipramine]	1
Cc1nnc(NS(=O)(=O)c2ccc(N)cc2)s1 [Sulfamethizole]	0.85
CN(C)CC/C=C1\c2ccccc2CSc2ccccc21 [Dothiepin]	0.95
CCc1nn(CCCN2CCN(c3cccc(Cl)c3)CC2)c(=O)n1CCOc1ccccc1 [Nefazodone]	1
CCOC(=O)[C@H](CCc1ccccc1)N[C@H]1CCCN2CCC[C@@H](C(=O)O)N2C1=O [Cilazapril]	0.59
CCCCCOC(=O)Nc1nc(=O)n([C@@H]2O[C@H](C)[C@@H](O)[C@H]2O)cc1F [Capecitabine]	0.96
CCCN(CCC)S(=O)(=O)c1ccc(C(=O)O)cc1 [Probenecid]	1
CC1=C(C(=O)O)N2C(=O)[C@@H](NC(=O)[C@H](N)C3=CCC=CC3)[C@H]2SC1 [Cephradine]	0.95
Cc1cc(CC(=O)O)n(C)c1C(=O)c1ccc(Cl)cc1 [Zomepirac]	1
OCCN(CCO)c1nc(N2CCCCC2)c2nc(N(CCO)CCO)nc(N3CCCCC3)c2n1 [Dipyridamole]	0.58
CCc1oc2ccccc2c1C(=O)c1cc(Br)c(O)c(Br)c1 [Benzbromarone]	0.73
N[C@@H](C(=O)N[C@@H]1C(=O)N2C(C(=O)O)=C(CSc3c[nH]nn3)CS[C@H]12)c1ccc(O)cc1 [Cefatrizine]	0.76
O=C1CN(/N=C/c2ccc(-c3ccc([N+](=O)[O-])cc3)o2)C(O)=N1 [Dantrolene]	0.8
COCC1=C(C(=O)OC(C)OC(=O)OC(C)C)N2C(=O)[C@@H](NC(=O)/C(=N\OC)c3csc(N)n3)[C@H]2SC1 (stereo partly drawn) [Cefpodoxime_proxetil]	0.5
Cc1nc(=O)c(C#N)c(NCc2cccnc2)[nH]1 [Pelrinone]	0.98
C#C[C@]1(O)CC[C@H]2[C@@H]3CCc4cc(OC)ccc4[C@H]3CC[C@@]21C [Mestranol]	0.9
NC(=O)c1cnccn1 [Pyrazinamide]	1
CCOC(=O)c1ncn2c1CN(C)C(=O)c1cc(F)ccc1-2 [Flumazenil]	0.95
O=C(O)CCc1nc(-c2ccccc2)c(-c2ccccc2)o1 [Oxaprozin]	0.98
CNC(=C[N+](=O)[O-])NCCSCc1csc(CN(C)C)n1 [Nizatidine]	0.9
CC#Cc1cn([C@@H]2O[C@H](CO)[C@@H](O)[C@@H]2O)c(=O)[nH]c1=O [Netivudine]	0.28
COc1cc([C@@H]2c3cc4c(cc3[C@@H](O[C@@H]3O[C@@H]5CO[C@@H](C)O[C@H]5[C@H](O)[C@H]3O)[C@H]3COC(=O)[C@H]23)OCO4)cc(OC)c1O [Etoposide]	0.5
O=C(NCCO[N+](=O)[O-])c1cccnc1 [Nicorandil]	1
Cc1onc(-c2c(F)cccc2Cl)c1C(=O)N[C@@H]1C(=O)N2[C@@H]1SC(C)(C)[C@@H]2C(=O)O [Floxacillin]	0.8

SMILES	HIA(Human Intestinal Absorption)
CNCCC=C1c2ccccc2CCc2ccccc21 [Nortriptyline]	1
COCC(=O)O[C@]1(CCN(C)CCCc2nc3ccccc3[nH]2)CCc2cc(F)ccc2[C@@H]1C(C)C [Mibefradil]	0.69
CNCCc1ccccn1 [Betahistine]	1
CN(C)CCCOc1nn(Cc2ccccc2)c2ccccc12 [Benzydamine]	0.87
C[C@](N)(Cc1ccc(O)c(O)c1)C(=O)O [Methyldopa]	0.41
Cc1ccsc1C(=CCCN1CCC[C@@H](C(=O)O)C1)c1sccc1C [Tiagabine]	0.9
CN(C)CCCN1c2ccccc2Sc2ccc(Cl)cc21 [Chlorpromazine]	0.98
CC(=O)Nc1ccc(O)cc1 [Acetaminophen]	0.85
C[C@]12C=CC(=O)C=C1CC[C@H]1[C@@H]3C[C@@H](O)[C@](O)(C(=O)CO)[C@@]3(C)C[C@H](O)[C@@]12F [Triamcinolone]	1
COc1cccc2c1C(=O)c1c(O)c3c(c(O)c1C2=O)C[C@@](O)(C(=O)CO)C[C@@H]3O[C@H]1C[C@H](N)[C@H](O)[C@H](C)O1 [Doxorubicin]	0.12
CC(=O)O[C@]1(C(C)=O)CC[C@H]2[C@@H]3C=C(Cl)C4=CC(=O)[C@@H]5C[C@@H]5[C@]4(C)[C@H]3CC[C@@]21C [Cyproterone_acetate]	0.98
CCC1=C(C)CN(C(=O)NCCc2ccc(S(=O)(=O)NC(=O)N[C@H]3CC[C@H](C)CC3)cc2)C1=O [Glimepiride]	1
Cc1ccc(S(=O)(=O)NC(=O)NN2CC3CCCC3C2)cc1 (stereo not drawn) [Gliclazide]	0.65
COc1cc(Cc2cnc(N)nc2N)cc(OC)c1OC [Trimethoprim]	0.97
Nc1c2c(nc3ccccc13)CCCC2 [Tacrine]	0.95
C[C@H]1C[C@@H]2[C@H]([C@@H](O)C[C@@]3(C)[C@H]2CC[C@]3(O)C(=O)CO)[C@@]2(C)C=CC(=O)C=C12 [Methylprednisolone]	0.82
O=C1NS(=O)(=O)c2ccccc21 [Saccharin]	0.88
CN1CCN(CCCCN2C(=O)CN(/N=C/c3ccc(-c4ccc(Cl)cc4)o3)C2=O)CC1 [Azimilide]	1
O=C1C(CC[S+]([O-])c2ccccc2)C(=O)N(c2ccccc2)N1c1ccccc1 (stereo not drawn) [Sulfinpyrazone]	1
CC[C@H](C)C(=O)O[C@H]1C[C@H](O)C=C2C=C[C@H](C)[C@H](CC[C@@H](O)C[C@@H](O)CC(=O)O)[C@H]21 [Pravastatin]	0.34
O=P(O)(O)C(Sc1ccc(Cl)cc1)P(=O)(O)O [Tiludronic_acid]	0.06
O=C1Cc2cc(CCN3CCN(c4nsc5ccccc45)CC3)c(Cl)cc2N1 [Ziprasidone]	0.6
C[C@]12C[C@H](O)[C@H]3[C@@H](CCC4=CC(=O)CC[C@@]43C)[C@@H]1CC[C@@H]2C(=O)CO [Corticosterone]	1
CN(C)CCCN1c2ccccc2CCc2ccccc21 [Imipramine]	1

SMILES	HIA(Human Intestinal Absorption)
CC(C)NCC(O)COc1ccc(CCOCC2CC2)cc1 (stereo not drawn) [Betaxolol]	0.9
CN(C)C(=N)N=C(N)N [Metformin]	0.53
CCOC(=O)C(C)(C)Oc1ccc(Cl)cc1 [Clofibrate]	0.97
CN1CCCC(n2nc(Cc3ccc(Cl)cc3)c3ccccc3c2=O)CC1 (stereo not drawn) [Azelastine]	1
O=C1CC[C@@]2(O)[C@H]3Cc4ccc(O)c5c4[C@@]2(CCN3CC2CC2)[C@H]1O5 [Naltrexone]	0.95
Cc1cnc(NC(=O)C2=C(O)c3ccccc3S(=O)(=O)N2C)s1 [Meloxicam]	0.9
CCCC(CCC)C(=O)O [Valproic_acid]	0.98
COc1ccccc1N1CCN(CCCNc2cc(=O)n(C)c(=O)n2C)CC1 [Urapidil]	0.78
CC(C)(C)NC(=O)[C@H]1CC[C@H]2[C@@H]3CC[C@H]4NC(=O)C=C[C@]4(C)[C@H]3CC[C@]12C [Finasteride]	1
Oc1ncnc2[nH]ncc12 [Allopurinol]	0.8
[H]/N=C(\N/C(=N/[H])Nc1ccc(Cl)cc1)NC(C)C [Proguanil]	0.8
CCC[C@H](N[C@@H](C)C(=O)N1[C@H](C(=O)O)C[C@@H]2CCCC[C@@H]21)C(=O)OCC [Perindopril]	0.95
C[C@@H]1CN(c2c(F)c(N)c3c(=O)c(C(=O)O)cn(C4CC4)c3c2F)C[C@H](C)N1 [Sparfloxacin]	0.9
[H]/N=C(\N/C(=N/[H])NCCCCCCNC(=N)NC(=N)Nc1ccc(Cl)cc1)Nc1ccc(Cl)cc1 [Chlorhexidine]	0.05
CC1=C(/C=C/C(C)=C/C=C/C(C)=C\C(=O)O)C(C)(C)CCC1 [Isotretinoin]	0.9
NS(=O)(=O)Cc1noc2ccccc12 [Zonisamide]	1
C=CC(N)CCC(=O)O (stereo not drawn) [Vigabatrin]	0.58
Cc1c(OCC(F)(F)F)ccnc1C[S+]([O-])c1nc2ccccc2[nH]1 (stereo not drawn) [Lansoprazole]	0.85
CC(=O)Oc1ccccc1C(=O)O [Aspirin]	0.82
OCCOCCN1CCN(C2=Nc3ccccc3Sc3ccccc32)CC1 [Quetiapine]	0.73
O=C(C1CCCCC1)N1CC(=O)N2CCc3ccccc3C2C1 (stereo not drawn) [Praziquantel]	1
CNCCC(Oc1ccc(C(F)(F)F)cc1)c1ccccc1 (stereo not drawn) [Fluoxetine]	0.8
CC(=O)N[C@H]1[C@H]([C@H](O)[C@H](O)CO)OC(C(=O)O)=C[C@@H]1N=C(N)N [Zanamivir]	0.02
